{"source": "patent US20090197917A1", "about": "“USE OF RIMONABANT FOR THE PREPARATION OF MEDICAMENTS USEFUL IN THE PREVENTION AND TREATMENT OF TYPE 2 DIABETES” (SANOFI-AVENTIS, priority 2005, published 2009)", "key": {"[1]": {"system": "obese subjects with type 2 diabetes", "assay": "Rio-Diabetes clinical study, 12 months, rimonabant 20 mg versus placebo", "assay_type": "in vivo, human", "method": "The Rio-Diabetes clinical study, carried out over 12 months in 1045 obese subjects with type 2 diabetes treated by monotherapy (metformin or sulfonylureas) compares the effect of rimonabant at the dose of 20 mg versus a placebo product in weight reduction; the improvement of glycosylated haemoglobin (HbAlc), of glycemia, of insulinaemia and lipid parameters. A low-calorie diet (deficit of 600 Kcal/day) is prescribed for all the patients and is introduced 4 weeks before the start of the treatment period.\nThe insulin resistance is evaluated by the HOMA (Homeostasis Model Assessment) test described by Matthew D. R. et al. in Diabetologica, 1985, 28, 412-419."}, "fa/fa obese Zucker rats": {"system": "fa/fa obese Zucker rats", "assay": "Long-term (12 months) treatment of obese Zucker rats: protection of the pancreas", "assay_type": "in vivo, rat", "description": "The effect of a long-term (12 months) treatment with rimonabant was studied in Zucker rats with established obesity.\nThe fa/fa strain of obese Zucker rats is characterized by hyperphagia, obesity, dyslipidaemia and type 2 diabetes.\nAfter 12 months, the fa/fa obese Zucker rats treated with the vehicle show a marked hypertrophy of the pancreas (+38%, p<0.05)."}, "[2]": {"details": "logistic regression analysis with weight as co-variable"}, "[3]": {"details": "rimonabant 20 mg, 12 months, p<0.001"}}, "data": [{"molecule": "Cc1c(C(=O)NN2CCCCC2)nn(-c2ccc(Cl)cc2Cl)c1-c1ccc(Cl)cc1", "note": "[rimonabant, N-piperidino-5-(4-chlorophenyl)-1-(2,4-dichlorophenyl)-4-methylpyrazole-3-carboxamide]", "values": [{"measurement": "effect independent of the weight loss for the improvement in HDL-c", "setting": "[1]; [2]", "value": "about 55%"}, {"measurement": "effect independent of the weight loss for the improvement in HbAlc", "setting": "[1]; [2]", "value": "about 55%"}, {"measurement": "effect independent of the weight loss for the triglycerides", "setting": "[1]; [2]", "value": "about 35%"}, {"measurement": "time after which the loss of weight appears stabilized", "setting": "[1]; rimonabant 20 mg", "value": 6, "unit": "months"}, {"measurement": "decrease in glycemia on an empty stomach", "setting": "[1]; rimonabant 20 mg group, 12 months, p<0.001 vs placebo", "value": "0.64 ± 1.96", "unit": "mmol/L"}, {"measurement": "improvement in insulin resistance evaluated by the HOMA test", "setting": "[1]; rimonabant 20 mg, 12 months", "value": "−0.5±5.7", "unit": "%"}, {"measurement": "decrease of triglycerides compared with the placebo group", "setting": "[1]; [3]", "value": "more than 16.4±3.3%"}, {"measurement": "difference in the reduction of the level of HbAlc compared with the placebo", "setting": "[1]; [3]", "value": "0.7±0.1", "unit": "%"}, {"measurement": "greater weight loss than that observed in the placebo group", "setting": "[1]; [3]", "value": "4.2 ± 0.4", "unit": "kg"}, {"measurement": "increase in the HDL-c level compared with the placebo", "setting": "[1]; [3]", "value": "greater than 8.4±1.2%"}, {"measurement": "reduction of insulinaemia on an empty stomach", "setting": "[1]; rimonabant 20 mg, 12 months, p=0.247 vs placebo", "value": "0.7±9.9", "unit": "μIU/mL"}, {"measurement": "reduction in the systolic blood pressure", "setting": "[1]; rimonabant 20 mg, p=0.020", "value": "0.8±12.8", "unit": "mmHg"}, {"measurement": "reduction in the diastolic blood pressure", "setting": "[1]; rimonabant 20 mg, p=0.060", "value": "1.9±8.2", "unit": "mmHg"}, {"measurement": "time at which the reduction of HbAlc is maximum", "setting": "[1]; rimonabant 20 mg, then maintained up to 12 months", "value": 9, "unit": "months"}, {"measurement": "HbAlc difference compared with the placebo", "setting": "[1]; rimonabant combined with a sulfonylurea, p<0.001", "value": "0.7±0.1", "unit": "%"}, {"measurement": "HbAlc difference compared with the placebo", "setting": "[1]; rimonabant combined with metformin, p<0.001", "value": "0.7±0.1", "unit": "%"}, {"measurement": "difference in weight loss compared with the placebo group", "setting": "[1]; rimonabant-metformin combination, p<0.001", "value": "4.3 ± 0.4", "unit": "kg"}, {"measurement": "difference in weight loss compared with the placebo group", "setting": "[1]; rimonabant-sulfonylurea combination, p<0.001", "value": "3.1 ± 0.5", "unit": "kg"}, {"measurement": "hypertrophy of the pancreas", "setting": "fa/fa obese Zucker rats; 3 mg/kg/day, vehicle +38%", "value": "+17%"}, {"measurement": "hypertrophy of the pancreas", "setting": "fa/fa obese Zucker rats; 10 mg/kg/day, p<0.05, vehicle +38%", "value": "+1%"}]}]}
